# Measured values reported in patent publication US20160158317A1, “Antimicrobial Peptide Variants and Polynucleotides Encoding Same” (Adenium Biotech A/S, priority 2010, published 2016).
# Where a SMILES comes first, the peptide text is derived from it. Bridges are numbered along the chain shown (N, C = ends).
# Experiment: Determination of the protein binding (90% serum, 30 kDa filter, HPLC)
# Type: in vitro ADME
# Settings: serum
# Method: Protein binding assays were performed as follows. The purified peptides were mixed with 90% serum and centrifuged through a 30 kDa filter. The ultra-filtrate and the non filtrated serum samples were quantified by HPLC measurements and the protein binding was subsequently calculated.
row,Structure (SMILES),fraction unbound
1,"CC(C)[C@@H]1NC(=O)CNC(=O)[C@H](CC(N)=O)NC(=O)[C@H](CCCNC(=N)N)NC(=O)[C@H](Cc2ccc(O)cc2)NC(=O)[C@H](C(C)C)NC(=O)[C@@H]2CSSC[C@H](NC(=O)[C@H](C(C)C)NC(=O)[C@H](CCCNC(=N)N)NC1=O)C(=O)N[C@@H](CCCCN)C(=O)N[C@@H](CCCNC(=N)N)C(=O)N[C@@H](CCCNC(=N)N)C(=O)N[C@H](C(=O)N[C@@H](CC(N)=O)C(=O)O)CSSC[C@H](NC(=O)[C@H](Cc1ccccc1)NC(=O)CN)C(=O)N[C@@H](Cc1c[nH]c3ccccc13)C(=O)N[C@@H](Cc1ccc(O)cc1)C(=O)N[C@@H](C(C)C)C(=O)N2 [compound 47] (H-GFCWYVCVYRNGVRVCKRRCN-OH; disulfide 3-20, 7-16 (inferred); N-terminus and C-terminus assumed)",0.11
2,"CC(C)[C@@H]1NC(=O)CNC(=O)[C@H](CC(N)=O)NC(=O)[C@H](CCCNC(=N)N)NC(=O)[C@H](Cc2ccc(O)cc2)NC(=O)[C@H](C(C)C)NC(=O)[C@@H]2CSSC[C@H](NC(=O)[C@H](C(C)C)NC(=O)[C@H](CCCNC(=N)N)NC1=O)C(=O)N[C@@H](CC(N)=O)C(=O)N[C@@H](CCCNC(=N)N)C(=O)N[C@@H](CCCNC(=N)N)C(=O)N[C@H](C(=O)N[C@@H](CC(N)=O)C(=O)O)CSSC[C@H](NC(=O)[C@H](Cc1ccccc1)NC(=O)CN)C(=O)N[C@@H](Cc1c[nH]c3ccccc13)C(=O)N[C@@H](Cc1ccc(O)cc1)C(=O)N[C@@H](C(C)C)C(=O)N2 [compound 48] (H-GFCWYVCVYRNGVRVCNRRCN-OH; disulfide 3-20, 7-16 (inferred); N-terminus and C-terminus assumed)",0.32
3,"CC(C)[C@@H]1NC(=O)CNC(=O)[C@H](CC(N)=O)NC(=O)[C@H](CCCNC(=N)N)NC(=O)[C@H](Cc2ccc(O)cc2)NC(=O)[C@H](C(C)C)NC(=O)[C@@H]2CSSC[C@H](NC(=O)[C@H](C(C)C)NC(=O)[C@H](CCCNC(=N)N)NC1=O)C(=O)N[C@@H](Cc1ccc(O)cc1)C(=O)N[C@@H](CCCNC(=N)N)C(=O)N[C@@H](CCCNC(=N)N)C(=O)N[C@H](C(=O)N[C@@H](CO)C(=O)O)CSSC[C@H](NC(=O)[C@H](Cc1ccccc1)NC(=O)CN)C(=O)N[C@@H](Cc1c[nH]c3ccccc13)C(=O)N[C@@H](Cc1ccc(O)cc1)C(=O)N[C@@H](C(C)C)C(=O)N2 [compound 53] (H-GFCWYVCVYRNGVRVCYRRCS-OH; disulfide 3-20, 7-16 (inferred); N-terminus and C-terminus assumed)",0.01
4,"CC(C)[C@@H]1NC(=O)CNC(=O)[C@H](CC(N)=O)NC(=O)[C@H](CCCNC(=N)N)NC(=O)[C@H](Cc2ccc(O)cc2)NC(=O)[C@H](C(C)C)NC(=O)[C@@H]2CSSC[C@H](NC(=O)[C@H](C(C)C)NC(=O)[C@H](CCCNC(=N)N)NC1=O)C(=O)N[C@@H](Cc1ccc(O)cc1)C(=O)N[C@@H](CCCNC(=N)N)C(=O)N[C@@H](CCCNC(=N)N)C(=O)N[C@H](C(=O)N[C@H](C(=O)O)[C@@H](C)O)CSSC[C@H](NC(=O)[C@H](Cc1ccccc1)NC(=O)CN)C(=O)N[C@@H](Cc1c[nH]c3ccccc13)C(=O)N[C@@H](Cc1ccc(O)cc1)C(=O)N[C@@H](C(C)C)C(=O)N2 [compound 54] (H-GFCWYVCVYRNGVRVCYRRCT-OH; disulfide 3-20, 7-16 (inferred); N-terminus and C-terminus assumed)",0.01
5,"CC(C)[C@@H]1NC(=O)CNC(=O)[C@H](CC(N)=O)NC(=O)[C@H](CCCNC(=N)N)NC(=O)[C@H](Cc2ccc(O)cc2)NC(=O)[C@H](C(C)C)NC(=O)[C@@H]2CSSC[C@H](NC(=O)[C@H](C(C)C)NC(=O)[C@H](CCCNC(=N)N)NC1=O)C(=O)N[C@@H](CCCNC(=N)N)C(=O)N[C@@H](CCCNC(=N)N)C(=O)N[C@@H](CCCNC(=N)N)C(=O)N[C@H](C(=O)N[C@@H](CC(N)=O)C(=O)O)CSSC[C@H](NC(=O)[C@H](Cc1ccccc1)NC(=O)CN)C(=O)N[C@@H](Cc1ccccc1)C(=O)N[C@@H](Cc1ccc(O)cc1)C(=O)N[C@@H](C(C)C)C(=O)N2 [compound 56] (H-GFCFYVCVYRNGVRVCRRRCN-OH; disulfide 3-20, 7-16 (inferred); N-terminus and C-terminus assumed)",0.06
6,"CC(C)[C@@H]1NC(=O)CNC(=O)[C@H](CC(N)=O)NC(=O)[C@H](CCCNC(=N)N)NC(=O)[C@H](Cc2ccc(O)cc2)NC(=O)[C@H](C(C)C)NC(=O)[C@@H]2CSSC[C@H](NC(=O)[C@H](C(C)C)NC(=O)[C@H](CCCNC(=N)N)NC1=O)C(=O)N[C@@H](Cc1ccc(O)cc1)C(=O)N[C@@H](CCCNC(=N)N)C(=O)N[C@@H](CCCNC(=N)N)C(=O)N[C@H](C(=O)N[C@@H](CC(N)=O)C(=O)O)CSSC[C@H](NC(=O)[C@H](Cc1ccccc1)NC(=O)CN)C(=O)NCC(=O)N[C@@H](Cc1c[nH]cn1)C(=O)N[C@@H](C(C)C)C(=O)N2 [compound 60] (H-GFCGHVCVYRNGVRVCYRRCN-OH; disulfide 3-20, 7-16 (inferred); N-terminus and C-terminus assumed)",0.36
7,"CC(C)[C@@H]1NC(=O)CNC(=O)[C@H](CC(N)=O)NC(=O)[C@H](CCCNC(=N)N)NC(=O)[C@H](Cc2ccc(O)cc2)NC(=O)[C@H](C(C)C)NC(=O)[C@@H]2CSSC[C@H](NC(=O)[C@H](C(C)C)NC(=O)[C@H](CCCNC(=N)N)NC1=O)C(=O)N[C@@H](Cc1ccc(O)cc1)C(=O)N[C@@H](CCCNC(=N)N)C(=O)N[C@@H](CCCNC(=N)N)C(=O)N[C@H](C(=O)N[C@@H](CC(N)=O)C(=O)O)CSSC[C@H](NC(=O)[C@H](Cc1ccccc1)NC(=O)CN)C(=O)NCC(=O)N[C@@H](CCCNC(=N)N)C(=O)N[C@@H](C(C)C)C(=O)N2 [compound 61] (H-GFCGRVCVYRNGVRVCYRRCN-OH; disulfide 3-20, 7-16 (inferred); N-terminus and C-terminus assumed)",0.28
8,"CC(C)[C@@H]1NC(=O)CNC(=O)[C@H](CC(N)=O)NC(=O)[C@H](CCCNC(=N)N)NC(=O)[C@H](Cc2ccc(O)cc2)NC(=O)[C@H](C(C)C)NC(=O)[C@@H]2CSSC[C@H](NC(=O)[C@H](C(C)C)NC(=O)[C@H](CCCNC(=N)N)NC1=O)C(=O)N[C@@H](CO)C(=O)N[C@@H](CCCNC(=N)N)C(=O)N[C@@H](CCCNC(=N)N)C(=O)N[C@H](C(=O)N[C@@H](CC(N)=O)C(=O)O)CSSC[C@H](NC(=O)[C@H](Cc1ccccc1)NC(=O)CN)C(=O)N[C@@H](Cc1c[nH]c3ccccc13)C(=O)N[C@@H](CCCCN)C(=O)N[C@@H](C(C)C)C(=O)N2 [compound 68] (H-GFCWKVCVYRNGVRVCSRRCN-OH; disulfide 3-20, 7-16 (inferred); N-terminus and C-terminus assumed)",0.13
9,"CC(C)[C@@H]1NC(=O)CNC(=O)[C@H](CC(N)=O)NC(=O)[C@H](CCCNC(=N)N)NC(=O)[C@H](Cc2ccc(O)cc2)NC(=O)[C@H](C(C)C)NC(=O)[C@@H]2CSSC[C@H](NC(=O)[C@H](C(C)C)NC(=O)[C@H](CCCNC(=N)N)NC1=O)C(=O)N[C@@H](Cc1c[nH]cn1)C(=O)N[C@@H](CCCNC(=N)N)C(=O)N[C@@H](CCCNC(=N)N)C(=O)N[C@H](C(=O)N[C@@H](CC(N)=O)C(=O)O)CSSC[C@H](NC(=O)[C@H](Cc1ccccc1)NC(=O)CN)C(=O)N[C@@H](Cc1c[nH]c3ccccc13)C(=O)N[C@@H](CC(N)=O)C(=O)N[C@@H](C(C)C)C(=O)N2 [compound 70] (H-GFCWNVCVYRNGVRVCHRRCN-OH; disulfide 3-20, 7-16 (inferred); N-terminus and C-terminus assumed)",0.21
10,"CC(C)[C@@H]1NC(=O)CNC(=O)[C@H](CC(N)=O)NC(=O)[C@H](CCCNC(=N)N)NC(=O)[C@H](Cc2ccc(O)cc2)NC(=O)[C@H](C(C)C)NC(=O)[C@@H]2CSSC[C@H](NC(=O)[C@H](C(C)C)NC(=O)[C@H](CCCNC(=N)N)NC1=O)C(=O)N[C@@H](Cc1ccc(O)cc1)C(=O)N[C@@H](CCCNC(=N)N)C(=O)N[C@@H](CCCNC(=N)N)C(=O)N[C@H](C(=O)N[C@@H](CC(N)=O)C(=O)O)CSSC[C@H](NC(=O)[C@H](Cc1ccccc1)NC(=O)CN)C(=O)N[C@@H](Cc1c[nH]c3ccccc13)C(=O)N[C@@H](CCCNC(=N)N)C(=O)N[C@@H](C)C(=O)N2 [compound 72] (H-GFCWRACVYRNGVRVCYRRCN-OH; disulfide 3-20, 7-16 (inferred); N-terminus and C-terminus assumed)",0.03
11,"CC(C)[C@@H]1NC(=O)CNC(=O)[C@H](CC(N)=O)NC(=O)[C@H](CCCNC(=N)N)NC(=O)[C@H](Cc2ccc(O)cc2)NC(=O)[C@H](Cc2c[nH]cn2)NC(=O)[C@@H]2CSSC[C@H](NC(=O)[C@H](C(C)C)NC(=O)[C@H](CCCNC(=N)N)NC1=O)C(=O)N[C@@H](Cc1ccc(O)cc1)C(=O)N[C@@H](CCCNC(=N)N)C(=O)N[C@@H](CCCNC(=N)N)C(=O)N[C@H](C(=O)N[C@@H](CC(N)=O)C(=O)O)CSSC[C@H](NC(=O)[C@H](Cc1ccccc1)NC(=O)CN)C(=O)N[C@@H](Cc1c[nH]c3ccccc13)C(=O)N[C@@H](CCCNC(=N)N)C(=O)N[C@@H](C(C)C)C(=O)N2 [compound 74] (H-GFCWRVCHYRNGVRVCYRRCN-OH; disulfide 3-20, 7-16 (inferred); N-terminus and C-terminus assumed)",0.01
12,"CC(C)[C@@H]1NC(=O)CNC(=O)[C@H](CC(N)=O)NC(=O)[C@H](CCCNC(=N)N)NC(=O)[C@H](Cc2ccc(O)cc2)NC(=O)[C@H](C(C)C)NC(=O)[C@@H]2CSSC[C@H](NC(=O)[C@H](C(C)C)NC(=O)[C@H](CCCNC(=N)N)NC1=O)C(=O)N[C@@H](Cc1c[nH]cn1)C(=O)N[C@@H](CCCNC(=N)N)C(=O)N[C@@H](CCCNC(=N)N)C(=O)N[C@H](C(=O)N[C@@H](CC(N)=O)C(=O)O)CSSC[C@H](NC(=O)[C@H](Cc1ccccc1)NC(=O)CN)C(=O)N[C@@H](Cc1c[nH]c3ccccc13)C(=O)N[C@@H](CCCNC(=N)N)C(=O)N[C@@H](C(C)C)C(=O)N2 [compound 76] (H-GFCWRVCVYRNGVRVCHRRCN-OH; disulfide 3-20, 7-16 (inferred); N-terminus and C-terminus assumed)",0.08
